Data from patent publication US9987208B2, “Elastin synthesis/regeneration promoting agent” (NISHIZAKI BIOINFORMATION RESEARCH INSTITUTE, priority 2013, dated 2018).

Legend:
[1] = test system: hippocampus nerve cells; conditions: cited from earlier work
[2] = test system: fibrin-5; assay: Western blotting of fibrin-5 secreted into culture medium; type: cell-based, human; conditions: DCP-LA 100 nM, 0-24 hr, FIG. 3
Procedure: (§1) Normal human fibroblast was purchased from Lonza (Verviers, Belgium). The cells were cultured in FGM™-2 BulletKit™ (Lonza) at 5% CO2 and 95% air under wet atmosphere at 37° C.
The cultured normal human skin fibroblast was treated with DCP-LA (100 nM) for 0-24 hr, and the culture medium was recovered. After precipitation with 5% (w/v) trichloroacetic acid, protein was separated by sodium dodecyl sulfate-polyacrylamide electrophoresis (SDS-PAGE) using TGX gel (BioRad, Hercules, Calif., USA) and transferred on a polyvinylidene difluoride membrane. The blotting membrane was blocked with TBS-T [150 mM NaCl, 0.1% (v/v) Tween20 and 20 mM Tris, pH 7.5] containing 5% (w/v) BSA, and reacted with anti-fibrin-5 antibody (Sigma, St Louis, Mo., USA). After washing, the membrane was reacted with horseradish peroxidase-conjugated goat anti-rabbit IgG antibody. The immune reactivity was detected by ECL kit (GE Healthcare, Piscataway, N.J., USA), and visualized using a chemiluminescence detection system (GE Healthcare). The protein concentration of each sample was measured using a BCA protein assay kit (Thermo Fisher Scientific, Waltham, Mass., USA).

[3] = target: α7 nicotinic acetylcholine receptor (Homo sapiens, UniProt P36544); conditions: α7 nicotinic acetylcholine receptor expressed in glutamatergic presynaptic cell as target; cited from earlier work
α7 nicotinic acetylcholine receptor, sequence (P36544 23-502): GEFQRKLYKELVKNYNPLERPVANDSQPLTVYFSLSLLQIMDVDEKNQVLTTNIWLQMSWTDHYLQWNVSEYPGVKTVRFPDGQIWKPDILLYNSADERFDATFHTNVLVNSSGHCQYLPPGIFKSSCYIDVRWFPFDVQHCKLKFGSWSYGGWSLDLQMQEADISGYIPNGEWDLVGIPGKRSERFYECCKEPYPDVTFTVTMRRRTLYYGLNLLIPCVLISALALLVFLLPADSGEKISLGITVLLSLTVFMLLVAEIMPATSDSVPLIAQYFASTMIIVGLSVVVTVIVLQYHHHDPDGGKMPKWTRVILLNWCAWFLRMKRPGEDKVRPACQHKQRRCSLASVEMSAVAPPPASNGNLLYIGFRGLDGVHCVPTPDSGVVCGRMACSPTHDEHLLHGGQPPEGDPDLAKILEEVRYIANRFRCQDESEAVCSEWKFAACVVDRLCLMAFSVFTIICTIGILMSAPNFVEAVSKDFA

[4] = test system: nerve cell; conditions: cited from earlier work
[5] = test system: amyloid β peptide or scopolamine-treated rat; conditions: cited from earlier work
[6] = test system: normal human skin fibroblast; assay: Immunocytological measurement of elastin fiber in fibroblasts with or without SNP; type: cell-based; conditions: DCP-LA 100 nM, FIG. 1
Procedure: as §1
In the presence or absence of DCP-LA (100 nM), normal human skin fibroblasts were treated with sodium nitroprusside (SNP) (1 mM). Then, the cells were fixed with methanol at −20° C. for 30 min, and blocked with 2% (w/v) bovine serum albumin-containing phosphate buffered saline (PBS) at room temperature. The cells were reacted with an anti-elastin antibody (1:100) (Millipore, Temecula, Calif., USA) at 4° C. overnight, and then reacted with an Alexa488-conjugated goat anti-mouse IgG antibody (Molecular Probes, Eugene, Oreg., USA) at room temperature for 1 hr. After staining with 4′,6-diamidino-2-phenylindole (DAPI), the fluorescence-labeled cells were visualized with a confocal scanning laser microscope (Axiovert/LSM510; Carl Zeiss, Oberkochen, Germany). The fluorescence signal intensity of the elastin fiber was analyzed using ImageJ (Bethesda, Md., USA). The intensity of the elastin fiber was standardized by the intensity of DAPI.

[7] = test system: senescence accelerated mouse; conditions: cited from earlier work
[8] = test system: HR-1 hairless mice; assay: Immunohistological measurement of elastin fiber in UV-irradiated mouse back skin; type: in vivo; conditions: DCP-LA 1 mg/ml in PEG applied to back skin once per day, UV for 2 weeks, FIG. 2
Procedure: Male HR-1 hairless mice (7- to 8-week-old) were purchased from Japan SLC. Inc. (Shizuoka, Japan). The mice were reared in a chamber at controlled temperature in a cycle of 12 hr light conditions/12 hr dark conditions.
The mice were transferred to a special cage provided with a UV light on the roof and reared therein. UV light was continuously irradiated on the back skin at a distance of 12 cm for the whole 2 weeks.
During UV irradiation, DCP-LA (1 mg/ml) diluted with polyethylene glycol (PEG) was applied to the skin of the back of the mouse once per day.
The mice were sacrificed, a skin block was mounted on OTC (optimal cutting temperature compound), and cut out in about 10 μm thickness by a cryostat. A section was blocked with 5% (v/v) goat serum in PBS-Triton X-100 for 1 hr. Then, the section was incubated with an anti-elastin mouse monoclonal antibody (1:2000) (Millipore), which is the primary antibody, at 4° C. overnight, and then incubated with a goat anti-mouse IgG antibody (1:500) (Invitrogen, Carlsbad, Calif., USA) which is the secondary antibody, for 1 hr at room temperature. After staining with DAPI, the section was visualized with a confocal scanning laser microscope (Axiovert/LSM510; Carl Zeiss). The fluorescence signal intensity of the elastin fiber was quantified by NIH image. The intensity of the elastin fiber was standardized by the intensity of DAPI.

[9] = target: T1, PKC-ε (Homo sapiens, UniProt Q02156); conditions: cited from earlier work
T1 sequence (Q02156 1-737): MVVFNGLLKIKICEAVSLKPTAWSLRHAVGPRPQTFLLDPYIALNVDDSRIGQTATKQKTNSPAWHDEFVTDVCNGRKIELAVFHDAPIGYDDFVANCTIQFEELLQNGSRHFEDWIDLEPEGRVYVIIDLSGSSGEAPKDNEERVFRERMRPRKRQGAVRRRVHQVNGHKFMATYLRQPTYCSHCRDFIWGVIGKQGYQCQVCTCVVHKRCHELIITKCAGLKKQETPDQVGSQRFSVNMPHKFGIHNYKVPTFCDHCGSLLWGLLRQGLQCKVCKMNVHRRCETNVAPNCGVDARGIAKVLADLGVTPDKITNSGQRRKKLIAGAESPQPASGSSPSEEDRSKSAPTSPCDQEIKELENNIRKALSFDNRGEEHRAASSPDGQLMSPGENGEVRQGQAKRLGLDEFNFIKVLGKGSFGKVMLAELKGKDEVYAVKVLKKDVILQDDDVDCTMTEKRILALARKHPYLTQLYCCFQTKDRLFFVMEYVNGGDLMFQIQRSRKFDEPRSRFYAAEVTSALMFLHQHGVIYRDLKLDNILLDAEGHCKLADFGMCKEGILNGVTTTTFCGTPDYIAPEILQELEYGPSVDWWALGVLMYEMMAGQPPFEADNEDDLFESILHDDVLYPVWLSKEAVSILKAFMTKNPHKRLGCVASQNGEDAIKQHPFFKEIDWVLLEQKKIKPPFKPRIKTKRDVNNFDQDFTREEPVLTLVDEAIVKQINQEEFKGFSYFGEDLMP

In the case of `CCCCCC1CC1CC1CC1CCCCCCCC(=O)O` (stereo not shown) [DCP-LA, 8-[2-(2-Pentyl-cyclopropylmethyl)-cyclopropyl]-octanoic acid], the “release of γ aminobutyric acid” value [1] is listed as “increases release of γ aminobutyric acid from hippocampus nerve cells”, the “secretion amount of fibrin-5” value [2] is listed as “increased the secretion amount of fibrin-5” and the hippocampal synaptic transmission [3] is listed as “promotes hippocampal synaptic transmission”. For the same compound, the “nerve cell death induced by oxidative stress” value [4] was “suppress nerve cell death induced by oxidative stress”, the cognitive dysfunction [5] was “improves cognitive dysfunction of amyloid β peptide or scopolamine-treated rat” and the “regeneration against elastin degeneration induced by NO stress (relative density of elastin fiber relative to DAPI)” value ([6]; SNP 1 mM for 12 hr) was “promote regeneration against elastin degeneration induced by NO stress”. For the same compound, the “elastin synthesis (relative density of elastin fiber relative to the DAPI density)” value ([6]; untreated with SNP) was “promote elastin synthesis”, the cognitive dysfunction [7] was “improves cognitive dysfunction of senescence accelerated mouse” and the “protection against elastin disorder caused by UV irradiation (relative density of elastin fiber relative to DAPI)” value [8] was “protecting action against elastin disorder (elastin deterioration) caused by UV irradiation”. For the same compound, the PKC-ε activation [9] was “activates PKC-ε selectively and directly”.
